Values of other authors, collected in patent US20150190322A1, “COMPOSITION, METHOD AND KIT FOR ENHANCING HAIR” (PHARMA PATENT HOLDING INC., priority 2009, published 2015).

Conditions: in some patients, during use for reduction of intraocular pressure

Compound: CC(C)OC(=O)CCC/C=C\C[C@@H]1[C@@H](CC[C@@H](O)CCc2ccccc2)[C@H](O)C[C@@H]1O [Latanoprost, isopropyl-(Z)-7[(1R, 2R, 3R, 5S)3,5-dihydroxy-2-[(3R)-3-hydroxy-5-phenylp-entyl]cyclopentyl]-5-heptenoate]
- pigmentation and growth of eyelashes: increasing pigmentation and growth of eyelashes
